Source: patent publication US20240360109A1 (SHANGHAI HANSOH BIOMEDICAL CO., LTD., priority 2021, published 2024)

Tests used:
human GLP-1 receptor = target: T1, human GLP-1 receptor (Homo sapiens, UniProt P43220); test: Stimulation of human GLP1 receptor stable transgenic cell line CHO-K1/GLP-1R/CRE-luc to produce cAMP (HTRF); type: cell-based; conditions: cAMP production, CHO-K1/GLP-1R/CRE-luc cells, 30 minutes incubation, 0.5 mM IBMX
T1 construct: expressed in transfected cells
Excerpt: I. Determination of the Ability of the Compound of the Present Invention to Stimulate Human GLP1 Receptor Stable Transgenic Cell Lines to Produce cAMP
The purpose of this test example is to determine the ability of the compound to activate the human GLP-1 receptor on the cell surface. The EC50 that stimulates […] after agonism characterizes the compound's ability to activate the human GLP-1 receptor.
The frozen human GLP1 receptor stable transgenic cell line CHO-K1/GLP-1R/CRE-luc was taken from the liquid nitrogen tank, quickly thawed in a 37° C. water bath, resuspended with DMEM/F12 medium, centrifuged, and washed once. The cells were resuspended with the experimental buffer, namely DMEM/F12 medium containing 0.1% casein, and the experimental buffer was used to adjust the cell density. The cells were spread on spread on a 384-well plate at a density of 2500 cells/5 μL/well, and then to each well was added 2.5 μL of buffer-prepared IBMX working solution with a final concentration of IBMX of 0.5 mM, and 2.5 μL of the compound sample with gradient dilution (starting at 1000 nM, 3-fold dilution, 11 concentrations). The plate was centrifuged at 1000 rpm for 1 minute, shaken for 30 seconds to mix well, and incubated at room temperature for 30 minutes. Detection was performed using the Cisbio cAMP—Gs Dynamic kit. cAMP-d2 and Anti-cAMP-Eu^3+-Cryptate were diluted 20-fold with cAMP Lysis & Detection Buffer, respectively, and mixed well. To each well was added 5 μL diluted cAMP-d2 solution, and then added 5 μL diluted Anti-cAMP-Eu3^+-Cryptate solution. The plate was shaken for 30 seconds, and incubated at room temperature for 1 hour in the dark. The signal reading of HTRF was performed using the Biotek Synergy H1 microplate reader with an excitation wavelength of 320 nm and emission wavelengths of 620 nm and 665 nm.
The signal ratio (665 nm/620 nm*10,000) was calculated, and the signal ratio and sample concentration were nonlinearly fitted using a four-parameter equation in GraphPad Prism 6 to obtain the EC50 value.

[1] = Pharmacokinetic assay of SD rats; type: in vivo; conditions: Sprague-Dawley, rat, po; male SD rats, plasma, dose 50 mg/kg (b1219 prints 5 mg/kg)
Method: SD rats were used as test animals. The pharmacokinetic behavior of the following example compounds was studied in the plasma of rats administered orally at a dose of 50 mg/kg.
Vehicle formula: 0.5% CMC-Na (1% Tween 80);
Three SD rats per group, male. […]
Before and after administration, 0.2 mL of blood was collected from the jugular vein at 0, 0.25, 0.5, 1, 2, 4, 6, 8 and 24 hours, placed in EDTA-K2 tubes, centrifuged at 6000 rpm at 4° C. for 6 min to separate the plasma. The plasma samples were stored at −80° C. The […] was fed 4 hours after the administration.
• 1) 160 μL of acetonitrile was added to 40 μL of the plasma sample for precipitation, and then the mixture was centrifuged at 3500×g for 5-20 min. • 2) After the above process, 100 μL of the supernatant was taken to analyze the concentration of the test compound by LC/MS/MS.
• Liquid chromatography condition: Shimadzu LC-20AD pump Mass spectrometry condition: AB Sciex API 4000 mass spectrometer Chromatographic column: phenomenex Gemiu 5 μm C18 50×4.6 mm • Mobile phase: Eluent A was 0.1% formic acid in water, and Eluent B was methanol • Flow rate: 1.0 mL/min • Elution time: 0-4.0 minutes, the eluent is as follows:
The main pharmacokinetic parameters were calculated using WinNonlin 8.2.

[2] = test system: GLP-1R humanized C57BL/6 mice fed with high-fat diet; test: Long-term administration: body weight and ingestion of GLP-1R humanized mice fed with high-fat diet; type: in vivo; conditions: HFD mice; for Weight (g)-D0 Mean: Day 0 (day of first administration, baseline), 10 mg/kg oral once a day; for Body weight change(%)-D10 Mean: Day 10 versus Day 0, 10 mg/kg oral once a day
Excerpt: The purpose of this test is to evaluate the effects of long-term administration of the compound on the body weight and ingestion of GLP-1R humanized C57BL/6 mice fed with high-fat diet.
C57BL/6_hGLP-1R, male, 5-8 weeks; 60% high-fat diet (HFD); Ultra-clean workbench; Electronic balance.
3.1 On the day of feeding with high-fat diet, C57BL/6 mice were randomly divided into two groups according to their weight. The first group was Blank, with 7 mice fed with normal control diet, while the remaining animals were in the modeling group, fed with high-fat diet, and continued until the end of the experiment.
3.2 At the 8th week of HFD feeding, the modeling group animals were randomly divided with 7 animals per group according to their weight. The first group was the Vehicle group (Vehicle: 0.5% CMC Na+1% Tween 80), which was given vehicle; The remaining group was the administration group; Administration regimen: Oral administration of the corresponding compound, administration cycle was 14 days, once a day for 14 days, with an administration dose of 10 mg/kg and an administration volume of 10 mL/kg. The Blank group continued to be fed with normal diet without any administration operation.
3.3 The day of administration was defined as Day 0.
3.4 During each administration, animals were weighed and data was recorded. Oral administration is performed according to body weight, with an administration volume of 10 mL/kg.
3.5 Starting from Day 0 of the experiment, the food intake of each group of mice was measured once every three days. Specifically, the feed was changed after each weighing and administration, and the added and remaining amounts were recorded.
3.6 On the end day of Day 14, all mice were euthanized sequentially according to grouping order, and the livers were dissected and weighed.
The weight and weight change rate of mice after administration were summarize and statistically analyzed. Weight change rate calculation: (BWt−BW0)/BW0×100%. BWt represents the weight of the mice on Day t of the experiment, and BW0 represents the weight of the mice on Day 0 of the experiment.
Calculation of food intake: (added amount (g)−remaining amount (g))/number of animals per cage, cumulative food intake is the sum of daily food intake of each animal during the administration period.
Experimental data were analyzed using GraphPad Prism software. The t-test method was used for comparison between the two groups. The one-way ANOVA method was used for comparisons between three or more groups.

T1 sequence (P43220 24-463): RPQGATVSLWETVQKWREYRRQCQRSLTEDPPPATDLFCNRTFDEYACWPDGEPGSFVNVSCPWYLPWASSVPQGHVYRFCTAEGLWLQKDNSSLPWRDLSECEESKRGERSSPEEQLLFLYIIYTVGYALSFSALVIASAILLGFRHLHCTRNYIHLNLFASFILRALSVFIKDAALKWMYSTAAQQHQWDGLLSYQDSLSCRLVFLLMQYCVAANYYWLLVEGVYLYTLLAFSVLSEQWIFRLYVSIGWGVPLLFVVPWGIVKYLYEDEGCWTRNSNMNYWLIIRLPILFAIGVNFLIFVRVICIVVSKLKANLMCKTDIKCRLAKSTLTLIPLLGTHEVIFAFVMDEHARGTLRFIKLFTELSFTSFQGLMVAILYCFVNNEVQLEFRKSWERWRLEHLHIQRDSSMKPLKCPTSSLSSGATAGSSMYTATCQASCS

Compound O=C(O)c1ccc2nc(CN3CCC(c4cccc5c4OC(c4ccc(Cl)cc4F)C=C5F)CC3)n(C[C@@H]3CCO3)c2c1 (stereo partly drawn) [Example 1, 2-((4-(2-(4-Chloro-2-fluorophenyl)-4-fluoro-2H-chromen-8-yl)piperidin-1-yl)methyl)-1-(((S)-oxetan-2-yl)methyl)-1H-benzo[d]imidazole-6-carboxylic acid] has an EC50 (human GLP-1 receptor) of 130 pM.

With O=C(O)c1ccc2nc(CN3CCC(c4cccc5c4O[C@@H](c4ccc(Cl)cc4F)C=C5F)CC3)n(C[C@@H]3CCO3)c2n1 [Example 2-A, 2-((4-((R)-2-(4-chloro-2-fluorophenyl)-4-fluoro-2H-chroman-8-yl)piperidin-1-yl)methyl)-3-(((S)-oxetan-2-yl)methyl)-3H-imidazolo[4,5-b]pyridine-5-carboxylic acid] the EC50 (human GLP-1 receptor) was 70 pM, the AUC(0-inf) [1] was 35800 ng·h/mL and the AUC(0-t) [1] was 35800 ng·h/mL. For the same compound, the Cmax [1] was 7160 ng/mL, the Tmax [1] was 2 h and the half-life [1] was 3.1 h.

Work on O=C(O)c1ccc2nc(CN3CCC(c4cccc5c4OC(c4ccc(Cl)cc4F)C=C5F)CC3)n(CC3(CF)CC3)c2c1 (stereo not drawn) [Example 3, 2-((4-(2-(4-Chloro-2-fluorophenyl)-4-fluoro-2H-chromen-8-yl)piperidin-1-yl)methyl)-1-((1-(fluoromethyl)cyclopropyl)methyl)-1H-benzo[d]imidazole-6-carboxylic acid] yielded an EC50 (human GLP-1 receptor) of 60 pM.

With [2H]C([2H])([2H])Oc1cc(Cl)ccc1[C@H]1C=C(F)c2cccc(C3CCN(Cc4nc5ccc(C(=O)O)nc5n4C[C@@H]4CCO4)CC3)c2O1 [Example 23-A, 2-((4-((R)-2-(4-chloro-2-(methoxy-d3)phenyl)-4-fluoro-2H-chromen-8-yl)piperidin-1-yl)methyl)-3-(((S)-oxetan-2-yl)methyl)-3H-imidazolo[4,5-b]pyridine-5-carboxylic acid] the EC50 (human GLP-1 receptor) was 70 pM.

Compound [2H]C([2H])([2H])Oc1cc(Cl)ccc1[C@H]1C=C(F)c2cccc(C3CCN(Cc4nc5ccc(C(=O)O)cc5n4C[C@@H]4CCO4)CC3)c2O1 [Example 24-A, 2-((4-((R)-2-(4-chloro-2-(methoxy-d3)phenyl)-4-fluoro-2H-chromen-8-yl)piperidin-1-yl)methyl)-1-(((S)-oxetan-2-yl)methyl)-1H-benzo[d]imidazole-6-carboxylic acid] has an EC50 (human GLP-1 receptor) of 50 pM.

With [2H][C@]1(c2ccc(Cl)cc2F)C=C(F)c2cccc(C3CCN(Cc4nc5ccc(C(=O)O)nc5n4C[C@@H]4CCO4)CC3)c2O1 [Example 40, 2-((4-((R)-2-(4-Chloro-2-fluorophenyl)-4-fluoro-2H-chromen-8-yl-2-d)piperidin-1-yl)methyl)-3-(((S)-oxetan-2-yl)methyl)-3H-imidazolo[4,5-b]pyridine-5-carboxylic acid] the “Weight (g)-D0 Mean” value ([2]; the 3rd table) was 28.40 g, the “Weight (g)-D10 Mean” value ([2]; Day 10, 10 mg/kg oral once a day, the 3rd table) was 26.01 g and the “Body weight change(%)-D10 Mean” value ([2]; the 3rd table) was −8.49%. For the same compound, the EC50 (human GLP-1 receptor) was 100 pM, the AUC(0-inf) [1] was 10800 ng·h/mL and the AUC(0-t) [1] was 10300 ng·h/mL. It also gave a Cmax [1] of 2300 ng/mL, a Tmax [1] of 1 h and a half-life [1] of 2 h.

Compound [2H][C@]1(c2ccc(Cl)cc2F)C=Cc2cccc(C3CCN(Cc4nc5ccc(C(=O)O)cc5n4C[C@@H]4CCO4)CC3)c2O1 [Example 47] has an EC50 (human GLP-1 receptor) of 80 pM.

In the case of [2H]C([2H])([2H])Oc1cc(Cl)ccc1[C@@]1([2H])C=C(F)c2cccc(C3CCN(Cc4nc5ccc(C(=O)O)cc5n4C[C@@H]4CCO4)CC3)c2O1 [Example 49, 2-((4-((R)-2-(4-Chloro-2-(methoxy-d3)phenyl)-4-fluoro-2H-chromen-8-yl-2-d)piperidin-1-yl)methyl)-1-(((S)-oxetan-2-yl)methyl)-1H-benzo[d]imidazole-6-carboxylic acid], the EC50 (human GLP-1 receptor) is reported as 80 pM.

For N#Cc1ccc([C@H]2C=Cc3cccc(C4CCN(Cc5nc6ccc(C(=O)O)cc6n5C[C@@H]5CCO5)CC4)c3O2)c(F)c1 [Example 52, 2-((4-((R)-2-(4-Cyano-2-fluorophenyl)-2H-chromen-8-yl)piperidin-1-yl)methyl)-1-(((S)-oxetan-2-yl)methyl)-1H-benzo[d]imidazole-6-carboxylic acid], the EC50 (human GLP-1 receptor) was 50 pM, the AUC(0-inf) [1] was 12600 ng·h/mL and the AUC(0-t) [1] was 12600 ng·h/mL. For the same compound, the Cmax [1] was 9400 ng/mL, the Tmax [1] was 1 h and the half-life [1] was 1.6 h.

With O=C(O)c1ccc2nc(CN3CCC(c4cccc5c4O[C@@H](c4ccc(Cl)cc4F)C=C5)CC3)n(C[C@@H]3CCO3)c2c1 [Example 53] the “Weight (g)-D0 Mean” value ([2]; the 4th table) was 28.34 g, the “Eeight (g)-D10 Mean” value ([2]; Day 10, 10 mg/kg oral once a day, the 4th table) was 25.65 g and the “Body weight change(%)-D10 Mean” value ([2]; the 4th table) was −9.53%. It also gave an EC50 (human GLP-1 receptor) of 60 pM, an AUC(0-inf) [1] of 21600 ng·h/mL and an AUC(0-t) [1] of 21500 ng·h/mL. The Cmax [1] was 7980 ng/mL, the Tmax [1] was 0.5 h and the half-life [1] was 2 h.
